In patent publication US9409907B2, “Inhibitor compounds” (Cancer Research Technology Limited, priority 2012, dated 2016):

molecular target: full length MPS1 (Homo sapiens (Human), UniProt P33981); test: Measurement of inhibition of MPS1 kinase (Caliper EZ reader mobility-shift enzyme assay); assay type: biochemical; conditions: full length MPS1 12.5 nM or 3 nM, H236 peptide 5 μM, ATP 10 μM, 60 min at room temperature
Experimental: Measurement of Inhibition of MPS1 Kinase
The reaction was carried out for 60 min at room temperature and stopped by the addition of buffer (10 μl) containing 20 mM EDTA, 0.05% (v/v) Brij-35, in 0.1M HEPES-buffered saline (Free acid, Sigma, UK). The plate was read on a Caliper EZ reader II (Caliper Life Sciences).
The % inhibition of the compounds is calculated relative to the means of selected control wells.

Chain of full length MPS1 (P33981 whole entry): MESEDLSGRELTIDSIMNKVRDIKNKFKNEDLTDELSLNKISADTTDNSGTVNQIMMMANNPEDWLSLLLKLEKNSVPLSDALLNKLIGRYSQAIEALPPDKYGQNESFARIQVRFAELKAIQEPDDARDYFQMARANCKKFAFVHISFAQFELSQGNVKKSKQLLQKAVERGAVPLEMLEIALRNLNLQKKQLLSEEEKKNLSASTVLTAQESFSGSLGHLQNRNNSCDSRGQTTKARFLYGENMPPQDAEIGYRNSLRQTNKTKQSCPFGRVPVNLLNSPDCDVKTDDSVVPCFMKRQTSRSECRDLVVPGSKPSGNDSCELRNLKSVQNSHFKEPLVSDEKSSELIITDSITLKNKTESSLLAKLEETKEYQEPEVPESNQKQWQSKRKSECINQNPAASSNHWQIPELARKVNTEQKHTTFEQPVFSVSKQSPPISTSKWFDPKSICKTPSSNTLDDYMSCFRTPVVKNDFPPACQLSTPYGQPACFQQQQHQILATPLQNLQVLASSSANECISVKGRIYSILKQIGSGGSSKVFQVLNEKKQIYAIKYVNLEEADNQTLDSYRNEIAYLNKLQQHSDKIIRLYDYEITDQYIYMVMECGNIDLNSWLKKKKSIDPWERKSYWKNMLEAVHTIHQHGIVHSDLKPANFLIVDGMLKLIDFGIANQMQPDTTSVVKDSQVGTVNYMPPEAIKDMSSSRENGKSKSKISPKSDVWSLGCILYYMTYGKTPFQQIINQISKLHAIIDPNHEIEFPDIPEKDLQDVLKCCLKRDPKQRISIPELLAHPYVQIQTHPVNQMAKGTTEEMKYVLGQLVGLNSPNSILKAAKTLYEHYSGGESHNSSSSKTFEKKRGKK

| IC50 | Structure (SMILES) |
| --- | --- |
| 4 nM | COc1cc(N2CCN(C)CC2)ccc1Nc1ncc2ccnc(NCC(C)(C)C)c2n1 [Example 173, N2-(2-methoxy-4-(4-methylpiperazin-1-yl)phenyl)-N8-neopentylpyrido[3,4-d]pyrimidine-2,8-diamine] |
| 4 nM | COc1cc(C(=O)N2CC(OC)C2)ccc1Nc1ncc2ccnc(NCC(C)(C)OC)c2n1 [Example 193] |
| 8 nM | COc1cc(-c2cnn(C)c2)ccc1Nc1ncc2ccnc(NC3CCOC3)c2n1 (stereo not drawn) [Example 78, N2-(2-methoxy-4-(1-methyl-1H-pyrazol-4-yl)phenyl)-N8-(tetrahydrofuran-3-yl)pyrido[3,4-d]pyrimidine-2,8-diamine] |
| 7 nM | COc1cc(-c2cnn(C)c2)ccc1Nc1ncc2ccnc(NCC3(O)CCC3)c2n1 [Example 89, 1-((2-(2-methoxy-4-(1-methyl-1H-pyrazol-4-yl)phenylamino)pyrido[3,4-d]pyrimidin-8-ylamino)methyl)cyclobutanol] |
| 164 nM | COc1cc(-c2cnn(C)c2)ccc1Nc1ncc2ccnc(Cl)c2n1 [Example 94, 8-chloro-N-(2-methoxy-4-(1-methyl-1H-pyrazol-4-yl)phenyl)pyrido[3,4-d]pyrimidin-2-amine] |
| 3 nM | COc1cc(-c2cnn(C)c2)ccc1Nc1ncc2ccnc(N3CCC4(COC4)C3)c2n1 [Example 88, N-(2-methoxy-4-(1-methyl-1H-pyrazol-4-yl)phenyl)-8-(2-oxa-6-azaspiro[3.4]oxtan-6-yl)pyrido[3,4-d]pyrimidin-2-amine] |
| 8 nM | Cc1cc(-c2cnn(C)c2)ccc1Nc1ncc2ccnc(NCC3CC3)c2n1 [Example 99, N8-(cyclopropylmethyl)-N2-(2-methyl-4-(1-methyl-1H-pyrazol-4-yl)phenyl)pyrido[3,4-d]pyrimidine-2,8-diamine] |
| 5 nM | COc1cc(-c2cn(C)nc2C)ccc1Nc1ncc2cc(C)nc(NCC(C)(C)OC)c2n1 [Example 192] |
| 112 nM | COc1cc(C(=O)N2CC(OC)C2)ccc1Nc1cc2c(-c3cncn3C)cccc2cn1 [Example 4, (3-methoxy-4-((5-(1-methyl-1H-imidazol-5-yl)isoquinolin-3-yl)amino)phenyl)(3-methoxyazetidin-1-yl)methanone] |
| 2 nM | COc1cc(-c2cnn(C)c2C)ccc1Nc1ncc2ccnc(NCC(C)(C)OC)c2n1 [Example 147, N^2-(4-(1,5-dimethyl-1H-pyrazol-4-yl)-2-methoxyphenyl)-N^8-(2-methoxy-2-methylpropyl)pyrido[3,4-d]pyrimidine-2,8-diamine] |
| 20 nM | COc1cc(-c2ncnn2C)ccc1Nc1ncc2cc(C)nc(NCC(C)(C)OC)c2n1 [Example 196] |
| 87 nM | N#Cc1ccc(Nc2ncc3ccnc(N4CCC5(COC5)C4)c3n2)c(Cl)c1 [Example 205] |
| 9 nM | COc1cc(-c2cnn(C)c2)ccc1Nc1ncc2ccnc(N3CCN(C)CC3)c2n1 [Example 62, N-(2-methoxy-4-(1-methyl-1H-pyrazol-4-yl)phenyl)-8-(4-methylpiperazin-1-yl)pyrido[3,4-d]pyrimidin-2-amine] |
| 5 nM | CCOc1cc(-c2cnn(C)c2)ccc1Nc1ncc2ccnc(N3CCC4(COC4)C3)c2n1 [Example 159, N-(2-ethoxy-4-(1-methyl-1H-pyrazol-4-yl)phenyl)-8-(2-oxa-6-azaspiro[3.4]octan-6-yl)pyrdio[3,4-d]pyrimidin-2-amine] |
| > 1000 nM | COc1cc(-c2cnn(C)c2)ccc1Nc1ncc2ccnc(NCC3(F)COC3)c2n1 [Example 124, N^8-((3-fluorooexetan-3-yl)methyl)-N^2-(2-methoxy-4-(1-methyl-1H-pyrazol-4-yl)phenyl)pyrido[3,4-d]pyrimidine-2,8-diamine] |
| 2 nM | COc1cc(-c2cnn(C)c2)ccc1Nc1ncc2ccnc(NCC3(C)COC3)c2n1 [Example 109, N^2-(2-methoxy-4-(1-methyl-1H-pyrazol-4-yl)phenyl)-N^8-((3-methyloxetan-3-yl)methyl)pyrido(3,4-d]pyrimidine-2,8-diamine] |
| 39 nM | COc1cc(-c2cnn(C)c2)ccc1Nc1ncc2ccnc(NS(=O)(=O)C(C)(C)C)c2n1 [Example 107, N-(2-(2-methoxy-4-(1-methyl-1H-pyrazol-4-yl)phenylamino)pyrido[3,4-d]pyrimidin-8-yl)-2-methylpropane-2-sulfonamide] |
| 2 nM | COCCn1c(-c2ccc(Nc3ncc4ccnc(NCC5(C)CCOC5)c4n3)c(OC)c2)cnc1C (stereo not drawn) [Example 187] |
| 17 nM | COc1cc(OC2CCN(C)CC2)ccc1Nc1cc2c(-c3cnn(C)c3)cccc2cn1 [Example 29, N-(2-Methoxy-4-((1-methylpiperidin-4-yl)oxy)phenyl)-5-(1-methyl-1H-pyrazol-4-yl)isoquinolin-3-amine] |

| IC50 | Structure (SMILES) |
| --- | --- |
| 14 nM | COCCn1cc(-c2cccc3cnc(Nc4ccc(C(=O)N5CC(OC)C5)cc4OC)cc23)cn1 [Example 2, (3-methoxy-4-((5-(1-(2-methoxyethyl)-1H-pyrazol-4-yl)isoquinolin-3-yl)amino)phenyl)(3-methoxyazetidin-1-yl)methanone] |
| 9 nM | COc1cc(-c2cnn(C)c2)ccc1Nc1ncc2ccnc(NC3CCN(C)CC3)c2n1 [Example 113, N^2-(2-methoxy-4-(1-methyl-1H-pyrazol-4-yl)phenyl)-N^8-(1-methylpiperidin-4-yl)pyrido[3,4-d]pyrimidine-2,8-diamine] |
| 19.4 nM | COCCn1c(-c2ccc(Nc3ncc4cc(C)nc(NCC(C)(C)C)c4n3)c(OC)c2)cnc1C [Example 181] |
| 200 nM | COc1cc(-c2cnn(C)c2)ccc1Nc1ncc2ccnc(-c3cncnc3)c2n1 [Example 208, N-(2-methoxy-4-(1-methyl-1H-pyrazol-4-yl)phenyl)-8-(pyrimidin-5H)pyrido[3,4-d]pyrimidin-2-amine] |
| 5 nM | COc1cc(-c2nncn2C)ccc1Nc1ncc2c(C)cnc(NCC3(C)CCOC3)c2n1 (stereo not drawn) [Example 156, N^2-(2-methoxy-4-(4-methyl-4H-1,2,4-triazol-3-yl)phenyl)-5-methyl-N^8-((3-methyltetrahydrofuran-3-yl)methyl)pyrido[3,4-d]pyrimidine-2,8-diamine] |
| 5 nM | COc1cc(-c2cnn(C)c2)ccc1Nc1ncc2ccnc(N[S+]([O-])C(C)(C)C)c2n1 (racemic) [Example 143, (±)-N-(2-(2-methoxy-4-(1-methyl-1H-pyrazol-4-yl)phenylamino)pyrido[3,4-d]pyrimidin-8-yl)-2-methylpropane-2-sulfinamide] |
| 10 nM | COc1cc(-c2cnn(C)c2)ccc1Nc1ncc2ccnc(-c3cnn(CC(F)F)c3)c2n1 [Example 93, 8-(1-(2,2-difluoroethyl)-1H-pyrazol-4-yl)-N-(2-methoxy-4-(1-methyl-1H-pyrazol-4-yl)phenyl)pyrido[3,4-d]pyrimidin-2-amine] |
| 93 nM | COc1cc(-c2cnn(C)c2)ccc1Nc1ncc2cc(C3CC3)nc(N3CCC4(COC4)C3)c2n1 [Example 136, 6-Cyclopropyl-N-(2-methoxy-4-(1-methyl-1H-pyrazol-4-yl)phenyl)-8-(2-oxa-6-azaspiro[3.4]octan-6-yl)pyrido[3,4-d]pyrimidin-2-amine] |
| 14 nM | COc1cc(-c2cnn(C)c2)ccc1Nc1ncc2ccnc(-c3cnn(C(C)C)c3)c2n1 [Example 92, 8-(1-isopropyl-1H-pyrazol-4-yl)-N-(2-methoxy-4-(1-methyl-1H-pyrazol-4-yl)phenyl)pyrido[3,4-d]pyrimidin-2-amine] |
| 3 nM | COc1cc(-c2cnn(C)c2)ccc1Nc1ncc2ccnc(N3CC4(CCOC4)C3)c2n1 [Example 120, N-(2-methoxy-4-(1-methyl-1H-pyrazol-4-yl)phenyl)-8-(6-oxa-2-azaspiro[3.4]octan-2-yl)pyrido[3,4-d]pyrimidin-2-amine] |
| 4 nM | COc1cc(C(=O)N2CC(OC)C2)ccc1Nc1ncc2ccnc(NCC(C)(C)C)c2n1 [Example 153, (3-methoxy-4-(8-(neopentylamino)pyrido[3,4-d]pyrimidin-2-ylamino)phenyl)(3-methoxyazetidin-1-yl)methanone] |
| 225 nM | Cn1cc(-c2ccc(Nc3cc4c(-c5cnn(C)c5)cccc4cn3)c(Cl)c2)cn1 [Example 23] |
| 5 nM | COc1cc(-c2cnn(C)c2)ccc1Nc1ncc2ccnc(C3=CCOCC3)c2n1 [Example 144, 8-(3,6-Dihydro-2H-pyran-4-yl)-N-(2-methoxy-4-(1-methyl-1H-pyrazol-4-yl)phenyl)pyrido[3,4-d]pyrimidin-2-amine] |
| 75 nM | COc1cc(-c2cnn(C)c2)ccc1Nc1ncc2ccnc(NCC(F)(F)F)c2n1 [Example 87, N2-(2-methoxy-4-(1-methyl-1H-pyrazol-4-yl)phenyl)-N8-(2,2,2-trifluoroethyl)pyrido[3,4-d]pyrimidine-2,8-diamine] |
| 11 nM | COc1cc(C(=O)N(C)C)ccc1Nc1ncc2ccnc(NCC(C)(C)OC)c2n1 [Example 194] |
| 4 nM | COCCn1c(-c2ccc(Nc3ncc4ccnc(NCC(C)(C)OC)c4n3)c(OC)c2)cnc1C [Example 186] |
| 3 nM | COc1cc(-c2cnn(C)c2)ccc1Nc1ncc2ccnc(NC3CCOCC3)c2n1 [Example 69, N2-(2-methoxy-4-(1-methyl-1H-pyrazol-4-yl)phenyl)-N8-(tetrahydro-2H-pyran-4-yl)pyrido[3,4-d]pyrimidine-2,8-diamine] |
| 30 nM | COc1cc(C(=O)N2CC(OC)C2)ccc1Nc1cc2c(-c3cccnc3)cccc2cn1 [Example 21, (3-Methoxy-4-((5-(pyridin-3-yl)isoquinolin-3-yl)amino)phenyl)(3-methoxyazetidin-1-yl)methanone] |
| > 1000 nM | COc1cc(-c2cnn(C)c2)ccc1Nc1ncc2ccnc(NC3COC3)c2n1 [Example 111, N^2-(2-methoxy-4-(1-methyl-1H-pyrazol-4-yl)phenyl)-N^8-(oxetan-3-yl)pyrido[3,4-d]pyrimidine-2,8-diamine] |

| Structure (SMILES) | IC50 |
| --- | --- |
| COc1cc(-c2nncn2C)ccc1Nc1ncc2ccnc(NCC(C)(C)C)c2n1 [Example 175, N2-(2-methoxy-4-(4-methyl-4H-1,2,4-triazol-3-yl)phenyl)-N8-neopentylpyrido[3,4-d]pyrimidine-2,8-diamine] | 2 nM |
